The nature of this assay: Inhibition of [35S]GTP-gamma-S, binding in guinea pig caudate stimulated by SNC80 (Opioid receptor delta 1). In general terms: GTPγS is a poorly hydrolysed GTP analogue; its binding reports G protein activation.

On to `C[C@H]1C2CCCC1(c1cccc(O)c1)CCN2CCc1ccccc1` (stereo partly drawn) [3-((R)-9-Methyl-2-phenethyl-2-aza-bicyclo[3.3.1]non-5-yl)-phenol], for which the affinity, expressed as Ki, was 13 nM.
